Test [1] deals with T1, human A3 AR (Homo sapiens, UniProt P0DMS8).
T1 construct: expressed in transfected cells; host or cells: CHO cells
T1 sequence (P0DMS8 1-318): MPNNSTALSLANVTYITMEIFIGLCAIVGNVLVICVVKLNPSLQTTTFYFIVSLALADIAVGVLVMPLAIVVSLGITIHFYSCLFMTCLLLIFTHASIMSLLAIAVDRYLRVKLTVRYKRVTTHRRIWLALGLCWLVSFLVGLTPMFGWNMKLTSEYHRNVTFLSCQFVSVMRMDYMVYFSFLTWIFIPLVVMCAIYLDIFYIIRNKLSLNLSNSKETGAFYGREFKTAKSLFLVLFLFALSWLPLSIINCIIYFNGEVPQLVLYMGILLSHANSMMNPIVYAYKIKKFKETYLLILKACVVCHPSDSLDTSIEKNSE
Conditions: human (h); Figure 2; ref Chen et al., 2002; Stössel et al., 2013; Mihara et al., 2007; read-out: A3 (Ki); cited from earlier work.

Test [2] deals with haloperidol-induced catalepsy. Also noted: method as in Mihara et al., 2007. Conditions: monkeys; ref Mihara et al., 2007; cited from earlier work.
The test system of the next test is passive avoidance test. Also noted: method as in Mihara et al., 2007. Conditions: rats; ref Mihara et al., 2007; cited from earlier work.
The next test has as its target T2, rat A1 AR (Rattus norvegicus, UniProt P25099).
T2 construct: A1 ARs of rat brain cortical membrane; from tissue; host or cells: rat brain cortex membranes
T2 sequence (P25099 1-326): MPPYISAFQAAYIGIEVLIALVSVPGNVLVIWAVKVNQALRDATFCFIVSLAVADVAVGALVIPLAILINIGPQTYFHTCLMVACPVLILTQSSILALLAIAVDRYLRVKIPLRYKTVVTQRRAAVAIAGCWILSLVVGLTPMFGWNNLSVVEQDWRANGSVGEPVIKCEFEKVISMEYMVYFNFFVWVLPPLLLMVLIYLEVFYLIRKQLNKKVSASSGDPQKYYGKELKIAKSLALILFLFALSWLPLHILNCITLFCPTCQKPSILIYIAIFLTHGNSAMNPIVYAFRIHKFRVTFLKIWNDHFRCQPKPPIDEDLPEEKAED
The test can be described thus: Radioligand binding assay at rat A1 AR (rat brain cortex) vs. [^3H]CCPA. The following applies: rat (r). The method in brief: (§1)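 Rat A1 binding used brain cortex membranes with [^3H]CCPA; rat A2A used striatal membranes with [^3H]MSX-2. Human A2B (and other human subtypes) assayed on membranes of CHO cells recombinantly expressing the receptor, A2B versus [^3H]PSB-603.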

The next test concerns the target T3, rat A2A AR (Rattus norvegicus, UniProt P30543).
T3 construct: A2A ARs of rat brain striatal membrane preparations; from tissue; host or cells: rat brain striatum membranes
The experiment in a line: Radioligand binding assay at rat A2A AR (rat brain striatum) vs. [^3H]MSX-2. The following applies: rat (r). In short, it runs like this: as §1

The next test addresses T4, human A2B AR (Homo sapiens, UniProt P29275).
T4 construct: expressed in transfected cells; host or cells: CHO cells
T4 sequence (P29275 1-332): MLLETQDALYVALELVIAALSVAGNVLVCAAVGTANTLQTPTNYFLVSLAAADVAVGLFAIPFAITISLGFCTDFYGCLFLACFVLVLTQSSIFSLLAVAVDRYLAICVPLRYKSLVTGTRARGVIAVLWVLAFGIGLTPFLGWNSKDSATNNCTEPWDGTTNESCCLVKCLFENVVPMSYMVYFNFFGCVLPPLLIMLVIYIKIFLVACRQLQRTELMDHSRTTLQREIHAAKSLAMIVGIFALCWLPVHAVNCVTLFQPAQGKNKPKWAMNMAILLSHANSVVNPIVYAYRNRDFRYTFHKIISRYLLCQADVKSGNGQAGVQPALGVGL
The test can be described thus: Radioligand binding assay at human A2B AR vs. [^3H]PSB-603. In short, it runs like this:
as §1

Test [3] deals with T1, human A3 AR. The experiment in a line: Radioligand binding assay at human A3 AR vs. [^3H]PSB-11. The method in brief:
as §1

In test [4] the target is T5, recombinant human MAO-A (Homo sapiens, UniProt P21397).
T5 construct: purchased Sigma-Aldrich M7316; host or cells: baculovirus-infected insect cells
T5 sequence (P21397 1-527): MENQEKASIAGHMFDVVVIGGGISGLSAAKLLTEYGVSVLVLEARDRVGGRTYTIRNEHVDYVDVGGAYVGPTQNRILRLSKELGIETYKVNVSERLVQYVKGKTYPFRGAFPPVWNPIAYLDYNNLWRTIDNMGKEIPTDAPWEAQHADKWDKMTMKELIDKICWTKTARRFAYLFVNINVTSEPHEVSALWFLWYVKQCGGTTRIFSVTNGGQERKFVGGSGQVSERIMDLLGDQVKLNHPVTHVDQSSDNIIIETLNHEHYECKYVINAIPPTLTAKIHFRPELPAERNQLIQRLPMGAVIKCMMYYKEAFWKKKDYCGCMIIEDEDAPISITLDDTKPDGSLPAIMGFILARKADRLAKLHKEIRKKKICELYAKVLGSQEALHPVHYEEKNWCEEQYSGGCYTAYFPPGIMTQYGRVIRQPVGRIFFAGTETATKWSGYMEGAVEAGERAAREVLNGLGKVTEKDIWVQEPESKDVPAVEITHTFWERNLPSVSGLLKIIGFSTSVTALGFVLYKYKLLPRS
The experiment in a line: Monoamine oxidase assay (Amplex Red), MAO-A. Type of test: biochemical. The following applies: for inhibition at 10 µM: at 10,000 nM, read-out: % inhibition at indicated concentration, Human MAO-A; for pIC50: n = 3, read-out: IC50 ± SEM, Human MAO-A. In short, it runs like this:
(§2)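 Recombinant human MAO-A and MAO-B, expressed in baculovirus-infected insect cells, were assayed by Amplex Red fluorometric detection. Rat MAO-B inhibition used mitochondria-enriched fractions from male Sprague Dawley rat liver.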

Test [5] has as its target T6, recombinant human MAO-B (Homo sapiens, UniProt P27338).
T6 construct: purchased Sigma-Aldrich M7441; host or cells: baculovirus-infected insect cells
T6 sequence (P27338 1-520): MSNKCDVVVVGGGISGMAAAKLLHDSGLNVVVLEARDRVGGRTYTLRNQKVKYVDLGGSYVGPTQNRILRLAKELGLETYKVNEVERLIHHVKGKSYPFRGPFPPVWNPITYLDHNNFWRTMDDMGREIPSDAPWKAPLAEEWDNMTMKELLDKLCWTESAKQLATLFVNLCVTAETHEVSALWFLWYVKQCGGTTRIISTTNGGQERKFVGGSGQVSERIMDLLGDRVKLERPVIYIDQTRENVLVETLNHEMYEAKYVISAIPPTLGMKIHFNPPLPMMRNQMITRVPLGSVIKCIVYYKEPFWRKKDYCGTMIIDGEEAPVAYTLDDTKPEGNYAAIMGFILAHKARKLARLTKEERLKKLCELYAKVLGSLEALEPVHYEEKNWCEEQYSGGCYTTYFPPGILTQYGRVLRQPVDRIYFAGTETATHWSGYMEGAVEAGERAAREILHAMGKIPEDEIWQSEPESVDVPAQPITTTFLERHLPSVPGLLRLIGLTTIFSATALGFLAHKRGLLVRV
The experiment in a line: Monoamine oxidase assay (Amplex Red), MAO-B. The test is classed as biochemical. Conditions: for inhibition at 10 µM: at 10,000 nM (10 μM), read-out: % inhibition at indicated concentration, Human MAO-B; for pIC50: n = 3, read-out: IC50 ± SEM, Human MAO-B. The method in brief:
as §2

For the next test, the system named is ARs. The test can be described thus: Radioligand binding assays at adenosine receptors (statements on ARs in general). How it is done: Membrane preparations and radioligand binding assays at rat A1 (rat brain cortex) and rat A2A ARs (rat brain striatum) were performed as previously described (Ozola et al., [2003]; Alnouri et al., [2015]). For assays at human A1, A2A, A2B, and A3 ARs, CHO cell membranes expressing one of the human AR subtypes were used as previously reported (Klotz et al., [1998]; Alnouri et al., [2015]; De Filippo et al., [2016]).
The synthesized tetrahydropyrazino[2,1-f ]purinediones 13–20 were evaluated in radioligand binding assays for their affinity to A1 ARs of rat brain cortical membrane and to A2A ARs of rat brain striatal membrane preparations. Selected compounds were further investigated for their affinity to human A1 and A2A ARs recombinantly expressed in Chinese hamster ovary (CHO) cells. All compounds were additionally investigated for their affinity to human A2B and A3 ARs recombinantly expressed in CHO cells to determine their AR subtype selectivity. […] It is well known that all xanthine derivatives lacking a ribose moiety, including tricyclic compounds, can only block ARs, but never act as AR agonists; therefore, additional functional studies were not required. […] Potent MAO-B inhibitors were additionally investigated for inhibition of human MAO-A to assess their selectivity. Results are presented in Tables 1–6, and data of standard ligands are included for comparison.

The target of test [6] is T5, recombinant human MAO-A. Conditions: human (h); Figure 1; ref Petzer et al., 2009; Müller and Jacobson, 2011; Brunschweiger et al., 2014; cited from earlier work.
In test [7] the target is T6, recombinant human MAO-B. Conditions: human (h); Figure 1; ref Petzer et al., 2009; Müller and Jacobson, 2011; Brunschweiger et al., 2014; cited from earlier work.

pIC50, pKi: −log10 of the molar value. Read-outs that look alike come from different tables or passages of the source. A value given as a limit tells only on which side of the number the result lay.

T3 sequence (P30543 whole entry): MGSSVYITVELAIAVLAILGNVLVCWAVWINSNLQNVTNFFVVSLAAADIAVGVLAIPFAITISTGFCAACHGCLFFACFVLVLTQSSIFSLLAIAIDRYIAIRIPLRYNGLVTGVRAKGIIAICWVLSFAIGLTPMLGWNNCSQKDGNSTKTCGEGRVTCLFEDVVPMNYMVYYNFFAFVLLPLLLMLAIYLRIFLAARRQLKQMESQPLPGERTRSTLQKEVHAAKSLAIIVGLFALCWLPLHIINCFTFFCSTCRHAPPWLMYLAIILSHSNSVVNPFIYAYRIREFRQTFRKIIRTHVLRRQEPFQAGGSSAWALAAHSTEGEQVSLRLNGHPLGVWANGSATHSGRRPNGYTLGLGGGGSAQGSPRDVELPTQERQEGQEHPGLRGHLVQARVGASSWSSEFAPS

Broadly, the pKi is the Ki on a negative log10 scale, so that one unit is a factor of ten. Take `CC(C)n1cc(-c2ncc(N)nc2-c2ccc(F)cc2)ccc1=O` [ASP-5854, 5-[5-amino-3-(4-fluorophenyl)pyrazin-2-yl]-1-isopropylpyridine-2(1H)-one]: at human A3 AR [1], the pKi is less than 6.25. In [2], the “effect on haloperidol-induced catalepsy” value was “reversed”. Also, the “result in the passive avoidance test” value in the test on passive avoidance test is given as “positive results”.

As usually defined, the pIC50 is the negative decadic logarithm of the IC50, by convention in mol/L. For the compound `CCn1c(=O)c2c(nc3n2CCN(Cc2cc(C(F)(F)F)cc(C(F)(F)F)c2)C3)n(C)c1=O` [Compound 14q, 8-(3,5-bis(trifluoromethyl)benzyl)-3-ethyl-1-methyl-6,7,8,9-tetrahydropyrazino[2,1-f]purine-2,4(1H,3H)-dione], the pKi is less than 5.82 at rat A1 AR (rat brain cortex, n = 3); less than 6.00 at rat A2A AR (rat brain striatum, n = 3, read-out: Ki ± SEM, A2A vs. [^3H]MSX-2); less than 6.00 at human A2B AR (CHO cell membranes, n = 2 (n = 3 where marked a), read-out: Ki ± SEM, A2B vs. [^3H]PSB-603); less than 5.00 at human A3 AR [3] (CHO cell membranes, n = 2 (n = 3 where marked a), read-out: Ki ± SEM, A3 vs. [^3H]PSB-11). The inhibition at 1.5 µM at rat A1 AR (read-out: % inhibition of radioligand binding at indicated concentration, A1 vs. [^3H]CCPA, at 1,500 nM) came to 31%. The “% inhibition of radioligand binding at indicated concentration, A2A vs. [^3H]MSX-2” value at rat A2A AR (at 1,000 nM) turned out to be 39%. Besides, the inhibition at 1 µM at human A2B AR (at 1,000 nM, read-out: % inhibition of radioligand binding at indicated concentration, A2B vs. [^3H]PSB-603) stood at 2%. Besides, the inhibition at 10 µM on human A3 AR [3] (at 10,000 nM, read-out: % inhibition of radioligand binding at indicated concentration, A3 vs. [^3H]PSB-11) was 32%; at recombinant human MAO-A [4] it was 8%; at recombinant human MAO-B [5], 56%. The negative logarithm of the IC50 (pIC50) was less than 5.00 at recombinant human MAO-A [4] and greater than 5.00 at recombinant human MAO-B [5]. Besides, the “affinity for ARs (in words)” value in the test with ARs was “nearly inactive”.

On to `CCn1c(=O)c2c(nc(/C=C/c3ccc(OC)c(OC)c3)n2C)n(CC)c1=O` [Istradefylline, istradefylline, reference compound], for which the inhibition at 10 µM at recombinant human MAO-A [4] came to 18%; on recombinant human MAO-B [5] it was 20%. In addition, the pIC50 on recombinant human MAO-A [4], on recombinant human MAO-B [5], on recombinant human MAO-A [6] and on recombinant human MAO-B [7] was less than 5.00 each time. Further, the “result in the passive avoidance test” value in the test with passive avoidance test was “inactive”.

(Values after publication PMC6028563, “Probing Substituents in the 1- and 3-Position: Tetrahydropyrazino-Annelated Water-Soluble Xanthine Derivatives as Multi-Target Drugs With Potent Adenosine Receptor Antagonistic Activity” (Frontiers in Chemistry, 2018).)
